Experiments:
SaSir2-HerA = target: T1, SaSir2-HerA (Staphylococcus aureus, UniProt C1PH93); assay: biolayer interferometry, protein captured on Ni-NTA sensor; type: binding
T1 sequence (C1PH93 1-428): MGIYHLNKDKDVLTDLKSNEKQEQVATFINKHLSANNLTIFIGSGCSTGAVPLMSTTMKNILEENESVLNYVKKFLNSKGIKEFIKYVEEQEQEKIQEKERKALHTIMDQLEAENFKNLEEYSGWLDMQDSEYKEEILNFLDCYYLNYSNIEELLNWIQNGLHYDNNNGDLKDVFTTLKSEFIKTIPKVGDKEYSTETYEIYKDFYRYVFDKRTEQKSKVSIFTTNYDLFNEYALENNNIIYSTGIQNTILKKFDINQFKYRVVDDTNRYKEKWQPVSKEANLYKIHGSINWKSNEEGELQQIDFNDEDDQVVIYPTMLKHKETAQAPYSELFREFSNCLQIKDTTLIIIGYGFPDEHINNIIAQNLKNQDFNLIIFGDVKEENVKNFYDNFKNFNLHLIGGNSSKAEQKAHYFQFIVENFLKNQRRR
T1 sequence (C1PH94 1-562 partner): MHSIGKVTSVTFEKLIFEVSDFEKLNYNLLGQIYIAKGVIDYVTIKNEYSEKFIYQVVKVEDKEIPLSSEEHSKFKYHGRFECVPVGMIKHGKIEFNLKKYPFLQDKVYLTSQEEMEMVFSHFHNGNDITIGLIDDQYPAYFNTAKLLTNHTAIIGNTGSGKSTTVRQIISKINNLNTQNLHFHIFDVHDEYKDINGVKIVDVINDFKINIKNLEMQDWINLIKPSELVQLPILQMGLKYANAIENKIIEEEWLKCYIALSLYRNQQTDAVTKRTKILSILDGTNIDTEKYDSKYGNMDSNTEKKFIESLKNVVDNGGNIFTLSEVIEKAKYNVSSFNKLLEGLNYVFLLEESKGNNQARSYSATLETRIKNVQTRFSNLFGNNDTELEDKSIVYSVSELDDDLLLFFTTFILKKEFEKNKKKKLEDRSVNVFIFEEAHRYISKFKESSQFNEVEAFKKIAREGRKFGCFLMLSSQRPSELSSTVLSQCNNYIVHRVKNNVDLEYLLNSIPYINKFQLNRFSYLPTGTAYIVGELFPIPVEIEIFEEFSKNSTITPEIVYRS

[1] = target: SaSir2 (Sir2 of Staphylococcus aureus), 6x His-tagged, expressed alone (Staphylococcus aureus); assay: AUC

NC(=O)c1ccc[n+]([C@@H]2O[C@H](COP(=O)(O)OP(=O)(O)OC[C@H]3O[C@@H](n4cnc5c(N)ncnc54)[C@H](O)[C@@H]3O)[C@@H](O)[C@H]2O)c1 [NAD^+]
Kd (SaSir2-HerA): 4.39 µM

SaSir2 (Sir2 of Staphylococcus aureus), 6x His-tagged, expressed alone (enzyme)
stoichiometry N [1]: 2

Reference: paper PMC11514289 (Nature Communications, 2024)
